Each structure is given as a SMILES string. Where only a bound is given, the exact number is not on record here.

For one assay, the target named is T1, PDGFR-beta (Homo sapiens, UniProt P09619).
T1 construct: the human glioblastoma line U1242 that expresses PDGFR-beta; endogenous in cells; host or cells: U1242 MG human glioblastoma cells
Put plainly: PDGF-R Cellular Assay (ELISA). It counts as cell-based. The following applies: U1242 MG cells, 100 ng/ml PDGF-BB. From the text:
The following examples illustrate the ability of the exemplary compounds to inhibit receptor tyrosine kinases, such as HER2 and/or EGFR. The following target cells were used for cellular kinase assays: NIH3T3 clone C7 (Honegger et al., supra) engineered to over-express human EGF receptor; NIH3T3 cells engineered to over-express a chimeric receptor containing the EGFR extracellular domain and the HER2 intracellular kinase domain; the human mammary carcinoma line BT474 (ATCC HTB2) expressing HER2; and the human glioblastoma line U1242 that expresses PDGFR-beta. Growth assays were carried out using human mammary epithelial SKBR3 (ATCC HTB30) cells (SKBR3 cells over-express HER2), SKOV3 (ATCC HTB77) human ovarian cancer cell line (SKOV3 cells also over-express HER2), A431 cells (A431 cells over-express EGFR) MCF7 human breast carcinoma cells, MCF7 cells overexpressing the HER2 kinase (MCF7-HER2), NIH3T3 cells, and NIH3T3 cells overexpressing the HER2 kinase (3T3-HER2.
The PDGF cellular kinase assay was carried out as follows: cells are lysed in 0.2M Hepes, 0.15M NaCl, 10% V/V glycerol, 0.04% Triton X-100, 5 mM EDTA, 5 rnM Na+ vanadate and 2 mM Na+ pyrophosphate; cell lysates are then added to an ELISA plate coated with an anti-PDGF receptor antibody (Genzyme); ELISA plates are coated at 0.5 μg of antibody/well in 150 μl of PBS for 18 hours at 4° C. prior to the addition of the lysate; the lysate is incubated in the coated plates for 1 hour and then washed four times in TBST (35 mM Tris-HCl pH 7.0, 0.15M NaCl, 0.1% Triton X100); anti-phosphotyrosine antibody (100 μl in PBS) is added and the mixture is incubated for 30 minutes at room temperature; the wells were then washed four times in TBST, a secondary antibody conjugated to POD (TAGO) is added to each well, and the treated well are incubated for 30 minutes at room temperature; the wells are then washed four times in TBST, ABTS/H2 O2 solution is added to each well and the wells are incubated for two minutes; absorbance is then measured at 410 nm.
U1242 MG cells were plated in 96-well plates at a concentration of 5×10^4 cells/well in cultured media containing 0.5% FBS. The cells were incubated for 24 hours. The cells were then treated with a particular compound for 2 hours followed by the addition of 100 ng/ml PDGF-BB and incubation for 10 minutes.
Cells were lysed in 0.2M Hepes, 0.15M NaCl, 10% V/V glycerol, 0.04% Triton X-100, 5 mM EDTA, 5 mM Na+ vanadate and 2 mM Na+ pyrophosphate. Cell lysates were then added to an ELISA plate coated with an anti-PDGF receptor antibody (Genzyme). ELISA plates were coated at 0.5 μg of antibody/well in 150 μl of PBS for 18 hours at 4° C. prior to the addition of the lysate.
The lysate was incubated in the coated plates for 1 hour and then washed four times in TBST (35 mM Tris-HCl pH 7.0, 0.15M NaCl, 0.1 % Triton X-100). Anti-phosphotyrosine antibody (100 μl in PBS) was added and the mixture was incubated for 30 minutes at room temperature. The wells were then washed four times in TBST, a secondary antibody conjugated to POD (TAGO) was added to each well, and the treated well were incubated for 30 minutes at room temperature. The wells were then washed four times in TBST, ABTS/H2 O2 solution was added to each well and the wells were incubated for two minutes. Absorbance was then measured at 410 nm.
Background: An ELISA detects its analyte on a solid surface through an enzyme-linked reagent.

In another assay the target is T2, Insulin Receptor (Homo sapiens, UniProt P06213).
T2 construct: expressed in transfected cells; host or cells: H25 (NIH3T3 line overexpressing Insulin Receptor)
T2 sequence (P06213 763-1382 limits assumed, species assumed): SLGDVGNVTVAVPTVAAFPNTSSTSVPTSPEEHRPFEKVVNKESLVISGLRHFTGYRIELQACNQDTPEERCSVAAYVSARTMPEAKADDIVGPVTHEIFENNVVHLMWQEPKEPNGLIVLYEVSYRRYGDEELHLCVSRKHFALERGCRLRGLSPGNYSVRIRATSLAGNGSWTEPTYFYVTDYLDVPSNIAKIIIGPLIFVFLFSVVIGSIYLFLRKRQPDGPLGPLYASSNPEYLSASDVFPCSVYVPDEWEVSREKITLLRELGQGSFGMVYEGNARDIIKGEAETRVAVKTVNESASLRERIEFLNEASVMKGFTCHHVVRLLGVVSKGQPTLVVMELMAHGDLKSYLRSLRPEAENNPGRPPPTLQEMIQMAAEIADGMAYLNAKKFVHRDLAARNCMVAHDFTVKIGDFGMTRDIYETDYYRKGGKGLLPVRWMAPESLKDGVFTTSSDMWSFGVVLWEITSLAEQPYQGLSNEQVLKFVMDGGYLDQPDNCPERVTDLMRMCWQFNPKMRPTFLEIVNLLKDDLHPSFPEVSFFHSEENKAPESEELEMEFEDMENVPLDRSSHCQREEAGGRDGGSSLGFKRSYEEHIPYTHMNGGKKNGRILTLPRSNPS
T2 sequence (P06213 28-758 partner limits assumed, species assumed): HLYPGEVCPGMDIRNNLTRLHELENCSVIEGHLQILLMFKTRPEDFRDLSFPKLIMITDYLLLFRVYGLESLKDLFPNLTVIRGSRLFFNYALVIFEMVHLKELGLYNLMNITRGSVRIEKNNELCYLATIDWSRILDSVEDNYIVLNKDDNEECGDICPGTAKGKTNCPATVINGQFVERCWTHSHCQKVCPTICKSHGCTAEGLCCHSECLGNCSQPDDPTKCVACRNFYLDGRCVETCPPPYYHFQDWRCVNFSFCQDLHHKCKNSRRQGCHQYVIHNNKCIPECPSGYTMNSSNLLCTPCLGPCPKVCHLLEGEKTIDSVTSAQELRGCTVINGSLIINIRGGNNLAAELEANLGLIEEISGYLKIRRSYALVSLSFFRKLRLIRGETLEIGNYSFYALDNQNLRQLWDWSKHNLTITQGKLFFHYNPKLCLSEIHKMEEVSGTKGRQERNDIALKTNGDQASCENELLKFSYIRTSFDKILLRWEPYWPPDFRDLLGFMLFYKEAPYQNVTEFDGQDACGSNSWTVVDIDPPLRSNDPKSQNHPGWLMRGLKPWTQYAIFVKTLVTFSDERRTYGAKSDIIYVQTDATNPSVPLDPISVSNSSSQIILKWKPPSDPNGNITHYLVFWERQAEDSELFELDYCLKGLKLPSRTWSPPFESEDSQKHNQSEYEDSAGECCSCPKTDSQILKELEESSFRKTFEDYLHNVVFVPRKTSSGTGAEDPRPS
Put plainly: Cellular Insulin Receptor ELISA. It counts as cell-based. As to conditions: H25 cells, 100 nM insulin; read-out: ELISA DATA: IR. As for the experimental part: Cellular Insulin Receptor ELISA (Version I)
The following protocol describes the cell line, reagents and procedures used to measure phosphotyrosine level on Insulin Receptor, which indicates Insulin Receptor tyrosine kinase activity.
MATERIALS AND REAGENTS (1). The cell line used in this assay is H25 (ATCC #CRL 8017), an NIH3T3 cell line which overexpresses Insulin Receptor.
(2). H25 cells are grown in an incubator with 5% CO2 at 37° C. The growth media is DMEM+10% FBS (heat inactivated)+2 mM L-Glutamine.
(3). For ELISA plate coating, the monoclonal anti-IR antibody named BBE is used. Antibodies are purified by the Enzymology Lab, SUGEN, Inc.
(1). The cells, grown in tissue culture dish (10 cm, Corning 25020-100) to 80-90% confluence, are harvested with Trypsin-EDTA (0.25%, 0.5 ml/D-100, GIBCO).
(2). Resuspend the cells in fresh DMEM+10% FBS+2 mM L-Glutamine, and transfer to 96-well tissue culture plate (Coming, 25806-96) at 20,000 cells/well (100 ul/well). Incubate for 1 day then replace medium to 0.01% serum medium (90/ul) and incubate in 5% CO2 and 37° C. overnight.
(1). Coat the ELISA plate (Corning 25805-96) with Anti-IR Antibody at 0.5 ug/well in 100 ul PBS at least 2 hours.
(2). Remove the coating solution, and replace with 100 ul Blocking Buffer, and shake for 30 minutes. Remove the blocking buffer and wash the plate just before adding lysate.
(1). The drugs are tested in serum-free condition.
(2). Dilute drug stock (in 100% DMSO) 1:10 with DMEM in 96-well poly-propylene plate, and transfer 10 ul/well of this solution to the cells to achieve final drug dilution 1:100, and final DMSO concentration of 1.0%. Incubate the cells in 5% CO2 at 37° C. for 2 hours.
(3). Prepare fresh cell lysis buffer (HNTG*) HNTG 2 ml EDTA 0.1 ml Na3VO4 0.1 ml Na4P2O7 0.1 ml H20 7.3 ml HNTG* 10 ml.
(4). After drug incubation for two hours, transfer 10 ul/well of 1 μM Insulin in PBS to the cells (Final Conc=100 nM), and incubate at 5% CO2 at 37° C. for 10 minutes.
(5). Remove media and add 100 ul/well HNTG* and shake for 10 minutes. Look at cells under microscope to see if they are adequately lysed.
(6). Use a 12-channel pipette to scrape the cells from the plate, and homogenize the lysate by repeat aspiration and dispense. Transfer all the lysate to the antibody coated ELISA plate [V.2.(2)], and shake for 1 hour.
(7). Remove the lysate, wash the plate, transfer anti-pTyr (1:3,000 with TBST) 100 ul/well, and shake for 30 minutes.
(8). Remove anti-pTyr, wash the plate, transfer detection antibody (1:3,000 with TBST) 100 ul/well, and shake for 30 minutes.
(9). Remove detection antibody, wash the plate, and transfer fresh ABTS/H2O2 (1.2 ul H2O2 to 10 ml ABTS) 100 ul/well to the plate to start color development.

T1 sequence (P09619 33-1106): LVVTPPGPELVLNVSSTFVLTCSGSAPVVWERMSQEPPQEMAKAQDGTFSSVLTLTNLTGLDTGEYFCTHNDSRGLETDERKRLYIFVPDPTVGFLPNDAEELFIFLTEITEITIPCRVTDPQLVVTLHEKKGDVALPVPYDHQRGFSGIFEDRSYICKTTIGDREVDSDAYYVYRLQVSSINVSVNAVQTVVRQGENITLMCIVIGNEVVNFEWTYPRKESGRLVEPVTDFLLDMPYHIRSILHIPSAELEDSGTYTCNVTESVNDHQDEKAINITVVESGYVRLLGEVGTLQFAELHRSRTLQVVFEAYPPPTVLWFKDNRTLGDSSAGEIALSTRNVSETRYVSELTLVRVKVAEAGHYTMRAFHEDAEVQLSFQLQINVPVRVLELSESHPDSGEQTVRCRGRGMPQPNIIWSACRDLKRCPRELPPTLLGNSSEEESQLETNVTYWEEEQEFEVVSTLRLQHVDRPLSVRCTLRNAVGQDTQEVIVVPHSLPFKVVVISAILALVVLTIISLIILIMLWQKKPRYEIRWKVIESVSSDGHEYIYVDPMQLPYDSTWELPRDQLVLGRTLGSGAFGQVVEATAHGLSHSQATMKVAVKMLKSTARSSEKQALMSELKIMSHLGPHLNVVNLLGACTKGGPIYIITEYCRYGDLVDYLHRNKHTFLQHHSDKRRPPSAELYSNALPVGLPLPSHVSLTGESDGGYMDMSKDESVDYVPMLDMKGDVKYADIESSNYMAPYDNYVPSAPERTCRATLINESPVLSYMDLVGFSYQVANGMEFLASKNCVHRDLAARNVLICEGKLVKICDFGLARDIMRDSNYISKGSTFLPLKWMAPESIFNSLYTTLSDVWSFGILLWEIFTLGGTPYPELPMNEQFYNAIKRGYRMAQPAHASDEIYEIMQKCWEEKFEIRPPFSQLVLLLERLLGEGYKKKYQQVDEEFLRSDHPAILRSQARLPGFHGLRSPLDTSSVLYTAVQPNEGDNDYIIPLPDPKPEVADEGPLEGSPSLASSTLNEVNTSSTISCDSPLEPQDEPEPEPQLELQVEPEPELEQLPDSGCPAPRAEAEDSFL

In turn, `CC(C)(C)c1cc(/C=C(\C#N)S(=O)(=O)c2cccs2)cc(C(C)(C)C)c1O` [Compound 742] yielded an IC50 against PDGFR-beta of over 100 µM.
Same read-out and setting: as for `CC(C)(C)c1cc(/C=C(\C#N)S(=O)(=O)c2ccc(F)cc2)cc(C(C)(C)C)c1O` [Compound 740], the figure is over 100 µM.
For `N#C/C(=C\c1ccc(O)cc1Cl)S(=O)(=O)NCc1ccccc1` [Compound 733], the IC50 on Insulin Receptor is over 100 µM; at PDGFR-beta, over 50 µM.
For `Cc1cc(/C=C(\C#N)S(=O)(=O)c2ccc(F)cc2)cc(C)c1O` [Compound 744], the IC50 against PDGFR-beta was over 100 µM.
Still for that read-out and setting: as for `CC(C)c1cc(/C=C(\C#N)S(=O)(=O)c2ccccn2)cc(C(C)C)c1O` [Compound 747], the figure is over 50 µM; as for `CC(C)c1cc(/C=C(\C#N)S(=O)(=O)c2cccs2)cc(C(C)C)c1O` [Compound 737], over 100 µM.
On to `CC(C)c1cc(/C=C(\C#N)S(=O)(=O)Cc2cccc(C(F)(F)F)c2)cc(C(C)C)c1O` [Compound 736], for which the IC50 at Insulin Receptor was 15.1 µM; against PDGFR-beta, over 100 µM.
On to `CC(C)c1cc(/C=C(\C#N)S(=O)(=O)NCc2ccccc2)cc(C(C)C)c1O` [Compound 732], for which the IC50 was found to be 8.8 µM at Insulin Receptor and 50 µM against PDGFR-beta.
The corresponding values for `CC(C)c1cc(/C=C(\C#N)S(=O)(=O)c2ccc(F)cc2)cc(C(C)C)c1O` [Compound 741, (E)-3-(3,5-Diisopropyl-4-hydroxyphenyl)-2-(4-fluorophenylsulfonyl)acrylonitrile] are 9.2 µM and over 100 µM.
Turning to `CC(C)c1cc(/C=C(\C#N)S(=O)(=O)/C(C#N)=C/c2cc(C(C)C)c(O)c(C(C)C)c2)cc(C(C)C)c1O` [Compound 745], at Insulin Receptor, the IC50 is 27 µM.
With `CC(C)c1cc(/C=C(\C#N)S(=O)(=O)c2ccsc2)cc(C(C)C)c1O` [Compound 738], the IC50 against PDGFR-beta is over 100 µM.
Take `CC(C)c1cc(/C=C(\C#N)S(=O)(=O)c2ccccc2)cc(C(C)C)c1O` [Compound 731]: the values for the IC50 at Insulin Receptor and against PDGFR-beta were 12 µM and over 50 µM, respectively.
As for `Cc1cc(/C=C(\C#N)S(=O)(=O)Cc2cccc(C(F)(F)F)c2)cc(C)c1O` [Compound 739], the IC50 on PDGFR-beta was over 100 µM.
In the case of `N#C/C(=C\c1ccc(O)cc1Cl)S(=O)(=O)NCCCc1ccccc1` [Compound 734], the IC50 at Insulin Receptor is 51 µM; against PDGFR-beta, over 50 µM.
At PDGFR-beta, `Cc1cc(/C=C(\C#N)S(=O)(=O)c2ccccc2)cc(C)c1O` [Compound 748] showed an IC50 of over 100 µM.
`CC(C)(C)c1cc(/C=C(\C#N)S(=O)(=O)c2ccsc2)cc(C(C)(C)C)c1O` [Compound 746]: the IC50 against PDGFR-beta is over 100 µM.
`CC(C)(C)c1cc(/C=C(\C#N)S(=O)(=O)Cc2cccc(C(F)(F)F)c2)cc(C(C)(C)C)c1O` [Compound 735]: at PDGFR-beta, the IC50 is over 100 µM.
At PDGFR-beta, `N#C/C(=C\c1ccc(O)c(O)c1)S(=O)(=O)c1cccs1` [Compound 743, (E)-3-(3,4-Dihydroxyphenyl)-2-[(thien-2-yl)sulfonyl]acrylonitrile] came in with an IC50 of over 100 µM.

The values are drawn from patent US5891917A, “Certain acrylonitrile-sulfonamide derivatives” (Sugen, Inc., priority 1997, dated 1999).
